# Assay results taken from patent US20250325517A1, “ORAL DOSAGE FORMS OF ELRAGLUSIB” (Actuate Therapeutics, Inc., priority 2022, published 2025).
# Assays:
# in vivo = experiment: in vivo; parameters: species or system Beagle dogs; conditions: male, Beagle, dog; for AUC(0-inf): AUCINF; for AUC(0-t): AUClast
# Procedure: The objective of this study was to evaluate the pharmacokinetic profile of elraglusib following single oral and intravenous doses in Beagle dogs.
# The test article (elraglusib in a vehicle of 85% PEG400, 10% ethanol, 5% water (all components are weight/weight/weight)) was administered orally and via intravenous infusion to dogs according to the tables below.
# Male Beagle dogs were selected for use in this study. Animals were at least 6 months old and males weighed approximately 9.3-10.8 kilograms at the start of dosing.
# The study animals received a single oral dose of elraglusib followed by an approximate 7-day washout period after which they received a single intravenous infusion of elraglusib. Animals underwent standard evaluations such as body weight and clinical observations, and were bled for pharmacokinetics following each dose.
# Plasma concentrations of elraglusib were determined for dogs treated with 20 mg/kg elraglusib via oral administration on Day 1 and then again via intravenous infusion on Day 8. […] Individual plasma concentrations were highest approximately 2-8 hours after oral administration (1,410-1,880 ng/mL), and highest at approximately 5 minutes following intravenous administration (11,800-13,600 ng/mL).
# [1] = Solubility of elraglusib in acetone, acetone:water and THF with and without polymers (24 h, visual and HPLC); assay type: physicochemical
# [2] = Elra:PVAP and Elra:CAP ASD stability study (XRPD, mDSC, TGA, HPLC, ssNMR); assay type: physicochemical; conditions: crystallinity marker peak of API
# Procedure: Both ASDs stored remained amorphous up to 12 weeks storage under the above-mentioned conditions (FIG. 21). The mDSC of the stability samples was carried out in a hermetically sealed pan without any pin hole, to determine the Tg in the presence of residual solvent or moisture (i.e., wet Tg).
# An HPLC chromatogram was also obtained using HPLC monitored at 210 nm for a sample stored for 12 weeks at different conditions.
# The first derivative was applied to the stability sample spectra (FIGS. 25-29). For pure amorphous samples, ssNMR produces gaussian curves that when applied to first derivative become a flat baseline. Crystalline material produces Laplacian curves by ssNMR which can be clearly observed after applying the first derivative.
# Signal to noise ratio of API reference was 8.18. In all four stability samples, the signal to noise ratio for the first derivative peak at 87 ppm remained <2.
# Solid-state NMR experiments were performed on a 2 channel Bruker NEO spectrometer (Bruker, Billerica, MA) operating at 100.52 MHz for 13C and 399.71 MHz for 1H. A Chemagnetics APEX probe, refitted with a 7 mm magic angle spinning module (Revolution NMR, Fort Collins, CO) was used to acquire the data. Each sample was packed into a 7 mm zirconia rotor with Kel-F spacers. The magic angle spinning (MAS) frequency that was used to acquire all of the data was 5 kHz. […]
# [3] = Solubility of elraglusib in acetone, acetone:water and THF with and without polymers (24 h, visual and HPLC); assay type: physicochemical; conditions: for time to precipitation when agitated: ~4% w/w solids; for visual observation: stirred
# Procedure: The solubility of elraglusib API with and without polymers of interest was evaluated in acetone. […] Samples were prepared according to Table 6-13. […] Additional studies were performed to determine if an increased water content would prevent formation of the solvate precipitate and more dilute solutions were tested for potential ASD processing.
smiles,measurement,setting,value
"Cn1cc(C2=C(c3coc4ccc(F)cc34)C(=O)NC2=O)c2cc3c(cc21)OCO3 [elraglusib, 3-(5-fluorobenzofuran-3-yl)-4-(5-methyl-5H-[1,3]dioxolo[4,5-f]indol-7-yl)-1H-pyrrole-2,5-dione]",bioavailability,in vivo,31%
same,"AUClast, IV versus PO",in vivo; 20 mg/kg,approximately 3 fold
same,AUC,"in vivo; iv, 20 mg/kg",68900 ng·h/mL
same,highest individual plasma concentrations,"in vivo; iv, 20 mg/kg","11,800-13,600 ng/mL"
same,time of highest individual plasma concentrations,"in vivo; iv, 20 mg/kg",approximately 5 minutes
same,AUC(0-inf),"in vivo; iv, 20 mg/kg",72800 ng·h/mL
same,AUC(0-t),"in vivo; iv, 20 mg/kg",68900 ng·h/mL
same,Cmax,"in vivo; iv, 20 mg/kg",12800 ng/mL
same,Tmax,"in vivo; iv, 20 mg/kg, Tmax",4.98 min
same,half-life,"in vivo; iv, 20 mg/kg, t1/2",363 min
same,AUC,"in vivo; po, 20 mg/kg",21300 ng·h/mL
same,highest individual plasma concentrations,"in vivo; po, 20 mg/kg","1,410-1,880 ng/mL"
same,time of highest individual plasma concentrations,"in vivo; po, 20 mg/kg",2 to 8 h
same,AUC(0-inf),"in vivo; po, 20 mg/kg",22600 ng·h/mL
same,AUC(0-t),"in vivo; po, 20 mg/kg",21300 ng·h/mL
same,Cmax,"in vivo; po, 20 mg/kg",1670 ng/mL
same,measured concentration by HPLC,"[1]; THF solution, 24 hours (theoretical 37 mg/mL)",34.68 mg/mL
same,time remaining soluble,[1]; tetrahydrofuran (THF),over 24 hours
same,"ssNMR Signal to Noise (87-96 ppm), first derivative spectra",[2],8.18
same,time remaining soluble,[3]; 1.5-2.0% w/w in 95:5 acetone:water,over 24 hours
same,time to precipitation when agitated,[3]; 90:10 acetone:water,3.5 h
same,time to precipitation when agitated,[3]; 95:5 acetone:water,2 h
same,visual observation,"[3]; Table 6-14 Sample 1: 4.02% w/w in Acetone, 30 min",Translucent
same,visual observation,"[3]; Table 6-14 Sample 1: 4.02% w/w in Acetone, 1 hour",Translucent
same,visual observation,"[3]; Table 6-14 Sample 1: 4.02% w/w in Acetone, 2 hours",Precipitation
same,visual observation,"[3]; Table 6-14 Sample 1: 4.02% w/w in Acetone, 4 hours",No change
same,visual observation,"[3]; Table 6-14 Sample 1: 4.02% w/w in Acetone, 8 hours",No change
same,visual observation,"[3]; Table 6-14 Sample 1: 4.02% w/w in Acetone, 24 hours",No change
same,visual observation,"[3]; Table 6-14 Sample 2: 4.02% w/w in THF, 30 min",Translucent
same,visual observation,"[3]; Table 6-14 Sample 2: 4.02% w/w in THF, 1 hour",Translucent
same,visual observation,"[3]; Table 6-14 Sample 2: 4.02% w/w in THF, 2 hours",Translucent
same,visual observation,"[3]; Table 6-14 Sample 2: 4.02% w/w in THF, 4 hours",Translucent
same,visual observation,"[3]; Table 6-14 Sample 2: 4.02% w/w in THF, 8 hours",Translucent
same,visual observation,"[3]; Table 6-14 Sample 2: 4.02% w/w in THF, 24 hours",Translucent
same,visual observation,"[3]; Table 6-14 Sample 3: 4.02% w/w in 95:5 Acetone:Water, 30 min",Translucent
same,visual observation,"[3]; Table 6-14 Sample 3: 4.02% w/w in 95:5 Acetone:Water, 1 hour",Translucent
same,visual observation,"[3]; Table 6-14 Sample 3: 4.02% w/w in 95:5 Acetone:Water, 2 hours",Precipitation
same,visual observation,"[3]; Table 6-14 Sample 3: 4.02% w/w in 95:5 Acetone:Water, 4 hours",No change
same,visual observation,"[3]; Table 6-14 Sample 3: 4.02% w/w in 95:5 Acetone:Water, 8 hours",No change
same,visual observation,"[3]; Table 6-14 Sample 3: 4.02% w/w in 95:5 Acetone:Water, 24 hours",No change
same,visual observation,"[3]; Table 6-14 Sample 4: 3.96% w/w API in Acetone with HPMCAS-MG (7.96% w/w total solids), 30 min",Hazy
same,visual observation,"[3]; Table 6-14 Sample 4: 3.96% w/w API in Acetone with HPMCAS-MG (7.96% w/w total solids), 1 hour",Hazy
same,visual observation,"[3]; Table 6-14 Sample 4: 3.96% w/w API in Acetone with HPMCAS-MG (7.96% w/w total solids), 2 hours",Hazy but no
same,visual observation,"[3]; Table 6-14 Sample 4: 3.96% w/w API in Acetone with HPMCAS-MG (7.96% w/w total solids), 4 hours",Precipitation
same,visual observation,"[3]; Table 6-14 Sample 4: 3.96% w/w API in Acetone with HPMCAS-MG (7.96% w/w total solids), 8 hours",No change
same,visual observation,"[3]; Table 6-14 Sample 4: 3.96% w/w API in Acetone with HPMCAS-MG (7.96% w/w total solids), 24 hours",No change
same,visual observation,"[3]; Table 6-17 Sample 1: 3.99% w/w in 90:10 acetone:water, 30 min",Translucent
same,visual observation,"[3]; Table 6-17 Sample 1: 3.99% w/w in 90:10 acetone:water, 1 hour",Translucent
same,visual observation,"[3]; Table 6-17 Sample 1: 3.99% w/w in 90:10 acetone:water, 2 hours",Translucent
same,visual observation,"[3]; Table 6-17 Sample 1: 3.99% w/w in 90:10 acetone:water, 3.5 hours",Precipitation
same,visual observation,"[3]; Table 6-17 Sample 1: 3.99% w/w in 90:10 acetone:water, 4 hours",No change
same,visual observation,"[3]; Table 6-17 Sample 1: 3.99% w/w in 90:10 acetone:water, 21.5 hours",No change
same,visual observation,"[3]; Table 6-17 Sample 2: 3.99% w/w in 95:5 acetone:water, 30 min",Translucent
same,visual observation,"[3]; Table 6-17 Sample 2: 3.99% w/w in 95:5 acetone:water, 1 hour",Translucent
same,visual observation,"[3]; Table 6-17 Sample 2: 3.99% w/w in 95:5 acetone:water, 2 hours",Precipitation
same,visual observation,"[3]; Table 6-17 Sample 2: 3.99% w/w in 95:5 acetone:water, 3.5 hours",No change
same,visual observation,"[3]; Table 6-17 Sample 2: 3.99% w/w in 95:5 acetone:water, 4 hours",No change
same,visual observation,"[3]; Table 6-17 Sample 2: 3.99% w/w in 95:5 acetone:water, 21.5 hours",No change
same,visual observation,"[3]; Table 6-17 Sample 3: 2.04% w/w in 95:5 acetone:water, 30 min",Translucent
same,visual observation,"[3]; Table 6-17 Sample 3: 2.04% w/w in 95:5 acetone:water, 1 hour",No change
same,visual observation,"[3]; Table 6-17 Sample 3: 2.04% w/w in 95:5 acetone:water, 2 hours",No change
same,visual observation,"[3]; Table 6-17 Sample 3: 2.04% w/w in 95:5 acetone:water, 3.5 hours",No change
same,visual observation,"[3]; Table 6-17 Sample 3: 2.04% w/w in 95:5 acetone:water, 4 hours",No change
same,visual observation,"[3]; Table 6-17 Sample 3: 2.04% w/w in 95:5 acetone:water, 21.5 hours",No change
same,visual observation,"[3]; Table 6-17 Sample 4: 1.84% w/w in 95:5 acetone:water, 30 min",Translucent
same,visual observation,"[3]; Table 6-17 Sample 4: 1.84% w/w in 95:5 acetone:water, 1 hour",No change
same,visual observation,"[3]; Table 6-17 Sample 4: 1.84% w/w in 95:5 acetone:water, 2 hours",No change
same,visual observation,"[3]; Table 6-17 Sample 4: 1.84% w/w in 95:5 acetone:water, 3.5 hours",No change
same,visual observation,"[3]; Table 6-17 Sample 4: 1.84% w/w in 95:5 acetone:water, 4 hours",No change
same,visual observation,"[3]; Table 6-17 Sample 4: 1.84% w/w in 95:5 acetone:water, 21.5 hours",No change
same,visual observation,"[3]; Table 6-17 Sample 5: 1.54% w/w in 95:5 acetone:water, 30 min",Translucent
same,visual observation,"[3]; Table 6-17 Sample 5: 1.54% w/w in 95:5 acetone:water, 1 hour",No change
same,visual observation,"[3]; Table 6-17 Sample 5: 1.54% w/w in 95:5 acetone:water, 2 hours",No change
same,visual observation,"[3]; Table 6-17 Sample 5: 1.54% w/w in 95:5 acetone:water, 3.5 hours",No change
same,visual observation,"[3]; Table 6-17 Sample 5: 1.54% w/w in 95:5 acetone:water, 4 hours",No change
same,visual observation,"[3]; Table 6-17 Sample 5: 1.54% w/w in 95:5 acetone:water, 21.5 hours",No change
same,solubility in acetone,[3]; crystallizes at room temperature at static conditions,4 % w/w
same,solubility at 24 h,"[3]; organic solvent or mixture, thermodynamic from solid, acetone, 24 hours, read-out: measured solubility by HPLC",13.1 mg/mL
